Legend:
[1] = test system: D-amino acid oxidase (DAAO); conditions: cited from earlier work
patients with dementia = conditions: depression in patients with dementia; cited from earlier work
patients with MDD [2] = experiment: 17-Item Hamilton rating scale for depression (HAMD-17) in randomized, double-blind, placebo-controlled trial; type: in vivo, human; conditions: for HAMD-17 Difference, Mean ± SD: baseline to week 8, 250-1500 mg/day, n = 20, p=0.011 vs placebo; for HAMD-17 score before treatment: baseline
Description: (§1) It was conducted a randomized, double-blind, placebo-controlled trial in Taiwan. […] At the baseline and at the end of week 2, 4, 6 and 8, the assessments of 17-Item Hamilton rating scale for depression (HAMD-17) (Hamilton 1960), perceived stress scale (PSS), and global assessment of function (GAF) were arranged.
(§2) This study was a pilot eight weeks trial with the aim of examining sodium benzoate for the treatment of MDD. Patients were evaluated by research psychiatrists after a thorough medical and neurological workup. The structured clinical interview for DSM-IV (SCID) (American Psychiatric Association 1994) was conducted for diagnosis, and eligible patients diagnosed with MDD by DSM-IV (American Psychiatric Association 1994b) were recruited. […] The dosage of study drugs was adjusted according to clinical evaluation.
(§3) The data analyses were based on the intent-to-treat principle. The last observation carried forward was used to analyze all available data from the entire sample (i.e., cases with complete and incomplete data). A level of 0.05 (two-sided value) for type I errors was adopted for all analyses for statistical significance. Demographic characteristics, baseline and endpoint symptomatology were compared between two groups by t test (or Mann-Whitney U test) for continuous variables and chi-square test (or Fisher's exact test) for categorical variables.

patients with MDD [3] = experiment: Global assessment of function (GAF) in randomized, double-blind, placebo-controlled trial; type: in vivo, human; conditions: for GAF Difference, Mean ± SD: baseline to week 8, 250-1500 mg/day, n = 20, table p 0.103 vs placebo
Description: as §1
as §2, with “Patients” for “This study was a pilot eight weeks trial with the aim of examining sodium benzoate for the treatment of MDD. Patients”
as §3

patients with MDD [4] = experiment: Perceived stress scale (PSS) in randomized, double-blind, placebo-controlled trial; type: in vivo, human; conditions: for PSS Difference, Mean ± SD: baseline to week 8, 250-1500 mg/day, n = 20, p=0.022 vs placebo
Description: as §1, §2, §3

patients with MDD [5] = experiment: Mini-mental state examination (MMSE) score of single subjects of the treatment group; type: in vivo, human; conditions: for MMSE score before treatment: baseline
From the text: At the same time, the mini-mental state examination (MMSE) score, which is used to evaluate cognitive impairment, has improved from 26 to 30. […] Furthermore, person two has a decrease of HAMD-17 score from 26 to 12, and improved cognitive function as shown by an increased MMSE score from 23 to 26.

patients with MDD [6] = experiment: Safety assessment: UKU side-effects rating scale, routine laboratory tests, EKG, dropout; type: in vivo, human
Description: In addition, the assessments of systemic side effects were examined biweekly by routine physical and neurological examinations and the Udvalg for Kliniske Undersogelser (UKU) side-effects rating scale (Lingjaerde, Ahlfors et al. 1987). The routine laboratory tests, including complete blood count (CBC), biochemistry, urine analysis and electrocardiogram (EKG), were checked at the baseline and at the end of week 8.
Further, clinical assessment of safety was performed every week during the study period by face-to-face or telephone interview. Drop out was determined by research psychiatrists or patients if continuation of the study was regarded obviously more risky than beneficial.

[7] = single subject one, after 8 weeks
[8] = single subject three, after treatment
[9] = single subject two, after treatment
[10] = week 0, n = 20, before treatment

SMILES: O=C(O)c1ccccc1 [Benzoic acid]
- inhibition of DAAO activity [1]: can inhibit DAAO activity

SMILES: CN[C@H]1CC[C@@H](c2ccc(Cl)c(Cl)c2)c2ccccc21 [sertraline]
- reduction of depression scores compared with placebo (patients with dementia): did not differ from the placebo group

SMILES: O=C([O-])c1ccccc1.[Na+] [sodium benzoate]
- improvement in HAMD-17 scores compared with placebo therapy (patients with MDD [2]; 8 weeks): greater improvement
- HAMD-17 Endpoint, Mean ± SD (patients with MDD [2]; after 8 weeks, 250-1500 mg/day, n = 20, LOCF): 19.3 ± 6.4
- HAMD-17 Difference, Mean ± SD (patients with MDD [2]): 7.5±4.9
- HAMD-17 Difference, Mean ± SD (patients with MDD [2]; listed as Benzoate): −7.5 ± 4.9
- HAMD-17 score decrease (patients with MDD [2]; single subject one, 8 weeks): 20
- HAMD-17 score after treatment (patients with MDD [2]; [7]): 4
- HAMD-17 score before treatment (patients with MDD [2]; single subject one): 24
- HAMD-17 score decrease (patients with MDD [2]; single subject three): 16
- HAMD-17 score after treatment (patients with MDD [2]; [8]): 15
- HAMD-17 score before treatment (patients with MDD [2]; single subject three): 31
- HAMD-17 score after treatment (patients with MDD [2]; [9]): 12
- HAMD-17 score before treatment (patients with MDD [2]; single subject two): 26
- HAMD-17 Baseline, Mean ± SD (patients with MDD [2]; [10]): 26.7 ± 5.2
- improvement in GAF scores compared with placebo therapy (patients with MDD [3]; 8 weeks): slightly greater improvement
- GAF Difference, Mean ± SD (patients with MDD [3]): 5.5±6.0
- GAF Difference, Mean ± SD (patients with MDD [3]; listed as Benzoate): 5.5 ± 6.0
- GAF Baseline, Mean ± SD (patients with MDD [3]; [10]): 57.4 ± 8.4
- improvement in PSS scores compared with placebo therapy (patients with MDD [4]; 8 weeks): greater improvement
- PSS Endpoint, Mean ± SD (patients with MDD [4]; after 8 weeks, 250-1500 mg/day, n = 20, LOCF, p 0.019 vs placebo): 28.9 ± 10.8
- PSS Difference, Mean ± SD (patients with MDD [4]): 6.4±9.9
- PSS Difference, Mean ± SD (patients with MDD [4]; listed as Benzoate): −6.4 ± 9.9
- PSS Baseline, Mean ± SD (patients with MDD [4]; [10]): 35.2 ± 5.8
- MMSE score after treatment (patients with MDD [5]; [7]): 30
- MMSE score before treatment (patients with MDD [5]; single subject one): 26
- MMSE score after treatment (patients with MDD [5]; [8]): 25
- MMSE score before treatment (patients with MDD [5]; single subject three): 23
- MMSE score after treatment (patients with MDD [5]; [9]): 26
- MMSE score before treatment (patients with MDD [5]; single subject two): 23
- Treatment-emergent adverse events by UKU side-effects rating scale (patients with MDD [6]; 8-week treatment): mild and not warranting medical treatment
- dropout due to side effects (patients with MDD [6]; 8-week treatment): No dropout was due to side effects
- values of routine CBC, biochemistry and EKG tests after treatment (patients with MDD [6]; baseline and end of week 8): all within the normal ranges without a significant change
- commonly seen side effects of anti-depression medication (nausea, nervousness, restlessness, irregular heart rate, sweating, constipation) (patients with MDD [6]; subjects from the treatment group): not observed
- inhibition of DAAO activity [1]: can inhibit DAAO activity

SMILES: CN1CCN2c3ncccc3Cc3ccccc3C2C1 (stereo not drawn) [mirtazapine]
- reduction of depression scores compared with placebo (patients with dementia): did not differ from the placebo group

Reference: US11826326B2, “Benzoic acid or a salt and derivative thereof for use in preventing or treating depression” (EXCELSIOR PHARMATECH LABS, priority 2017, dated 2023)
